Results as given in ChEMBL document CHEMBL3352746, “Synthesis and anticancer activity of quinopimaric and maleopimaric acids’ derivatives” (Bioorg Med Chem, 2014).

Experiments:
HL-60(TB) = test: Growth inhibition of human HL-60(TB) cells; assay type: functional
MDA-MB-231 = test: Growth inhibition of human MDA-MB-231 cells; assay type: functional
Mus musculus [1] = test: Toxicity in mouse P388 cells implanted mouse assessed as mean spleen weight at 10 mg/kg, ip dosed daily for 5 days administered 24 hrs after tumor implantation; assay type: organism-based; set-up: dose 10 mg/kg, route intraperitoneal; details: in vivo
MCF7 = test: Growth inhibition of human MCF7 cells; assay type: functional
DU-145 = test: Growth inhibition of human DU145 cells; assay type: functional
Mus musculus [2] = test: Toxicity in mouse P388 cells implanted mouse assessed as mean spleen weight at 60 mg/kg, ip dosed daily for 5 days administered 24 hrs after tumor implantation; assay type: organism-based; set-up: dose 60 mg/kg, route intraperitoneal; details: in vivo
Mus musculus [3] = test: Toxicity in mouse P388 cells implanted mouse assessed as mouse mortality at 40 mg/kg, ip dosed daily for 5 days administered 24 hrs after tumor implantation; assay type: organism-based; set-up: dose 40 mg/kg, route intraperitoneal; details: in vivo
[4] = Growth inhibition of human BT549 cells; assay type: functional
[5] = Growth inhibition of human EKVX cells; assay type: functional
Mus musculus [6] = test: Toxicity in mouse P388 cells implanted mouse assessed as mouse mortality at 10 mg/kg, ip dosed daily for 5 days administered 24 hrs after tumor implantation; assay type: organism-based; set-up: dose 10 mg/kg, route intraperitoneal; details: in vivo
[7] = Growth inhibition of human NCI-ADR-RES cells; assay type: functional
SN12C = test: Growth inhibition of human SN12C cells; assay type: functional
[8] = Antitumor activity against mouse CA-755 cells implanted in mouse assessed as tumor growth inhibition at 40 mg/kg, ip dosed daily for 5 days measured 8 to 9 days after treatment termination; assay type: functional; details: CA-755, ip, route intraperitoneal, read-out: TGI
TK-10 = test: Growth inhibition of human TK10 cells; assay type: functional
SK-MEL-28 = test: Growth inhibition of human SK-MEL-28 cells; assay type: functional
SNB-19 = test: Growth inhibition of human SNB19 cells; assay type: functional
K562 = test: Growth inhibition of human K562 cells; assay type: functional
[9] = read-out: pLC50 (the source's name) (converted)

Work on `COC(=O)[C@]1(C)CCC[C@]2(C)[C@H]3C[C@H]4C(C(C)C)=C[C@]3(CC[C@H]21)[C@@H]1/C(=N/O)CC/C(=N\O)[C@@H]14` yielded a GI50 (HL-60(TB)) of 1.95 µM, a CC50 (HL-60(TB); [9]) of 36.3 µM and a TGI (HL-60(TB); read-out: pTGI (converted)) of 4.57 µM. The GI50 (MDA-MB-231) was 7.24 µM, the CC50 (MDA-MB-231; [9]) was 56.2 µM and the TGI (MDA-MB-231; read-out: pTGI (converted)) was 22.4 µM. It also gave an Activity (Mus musculus [1]) of 95 mg, a GI50 (MCF7) of 1.78 µM and a CC50 (MCF7; [9]) of 9.55 µM. For the same compound, the TGI (MCF7; read-out: pTGI (converted)) was 4.07 µM, the GI50 (DU-145; DU-145) was 3.02 µM and the CC50 (DU-145; DU-145, read-out: pLC50 (converted)) was over 100 µM. The TGI (DU-145; DU-145, read-out: pTGI (converted)) was 15.8 µM, the Activity (Mus musculus [2]) was 144 mg and the Activity (Mus musculus [3]) was “Non-toxic”. It also gave a GI50 ([4]; BT-549) of 3.55 µM, a CC50 ([4]; BT-549, read-out: pLC50 (the source's name) (converted)) of 36.3 µM and a TGI ([4]; BT-549, read-out: pTGI (converted)) of 11.2 µM. It also gave a GI50 [5] of 3.72 µM, a CC50 [5, 9] of 79.4 µM and a TGI ([5]; read-out: pTGI (converted)) of 18.2 µM. For the same compound, the Activity (Mus musculus [6]) was “Non-toxic”, the GI50 [7] was 3.16 µM and the CC50 ([7]; read-out: pLC50 (converted)) was over 100 µM. For the same compound, the TGI ([7]; read-out: pTGI (converted)) was 9.55 µM, the GI50 (SN12C) was 1.86 µM and the CC50 (SN12C; [9]) was 8.13 µM. It also gave a TGI (SN12C; read-out: pTGI (converted)) of 3.89 µM, an inhibition in vivo at 40 mg/kg [8] of 52% and a GI50 (TK-10) of 9.12 µM. The CC50 (TK-10; [9]) was 56.2 µM, the TGI (TK-10; read-out: pTGI (converted)) was 22.9 µM and the GI50 (SK-MEL-28) was 9.33 µM. It also gave a CC50 (SK-MEL-28; [9]) of 53.7 µM, a TGI (SK-MEL-28; read-out: pTGI (converted)) of 22.9 µM and a GI50 (SNB-19) of 11.5 µM. For the same compound, the CC50 (SNB-19; [9]) was 55 µM, the TGI (SNB-19; read-out: pTGI (converted)) was 25.1 µM and the GI50 (K562; K562) was 3.24 µM. The CC50 (K562; K562, read-out: pLC50 (converted)) was over 100 µM and the TGI (K562; K562, read-out: pTGI (converted)) was 11.7 µM.
